The term pA2 denotes the negative logarithm of the molar antagonist concentration that doubles the agonist concentration needed for the same response. Read a low pA2 as lower antagonist potency.

This assay deals with T1, Adrenergic receptor alpha-2 (Rattus norvegicus, UniProt P22086+P19328+P22909).
T1 sequence (P22086 whole entry): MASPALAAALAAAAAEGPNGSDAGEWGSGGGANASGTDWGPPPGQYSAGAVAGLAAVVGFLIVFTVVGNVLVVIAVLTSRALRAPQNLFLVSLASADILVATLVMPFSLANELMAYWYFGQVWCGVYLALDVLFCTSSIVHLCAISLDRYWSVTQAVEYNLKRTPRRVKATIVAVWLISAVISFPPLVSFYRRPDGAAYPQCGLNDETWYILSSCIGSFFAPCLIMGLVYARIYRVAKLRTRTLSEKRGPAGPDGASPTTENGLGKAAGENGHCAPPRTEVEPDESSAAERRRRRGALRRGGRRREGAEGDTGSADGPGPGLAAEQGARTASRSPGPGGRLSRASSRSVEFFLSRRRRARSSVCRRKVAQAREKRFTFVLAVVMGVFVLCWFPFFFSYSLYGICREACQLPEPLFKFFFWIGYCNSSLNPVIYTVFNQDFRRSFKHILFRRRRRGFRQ
T1 sequence (P19328 whole entry): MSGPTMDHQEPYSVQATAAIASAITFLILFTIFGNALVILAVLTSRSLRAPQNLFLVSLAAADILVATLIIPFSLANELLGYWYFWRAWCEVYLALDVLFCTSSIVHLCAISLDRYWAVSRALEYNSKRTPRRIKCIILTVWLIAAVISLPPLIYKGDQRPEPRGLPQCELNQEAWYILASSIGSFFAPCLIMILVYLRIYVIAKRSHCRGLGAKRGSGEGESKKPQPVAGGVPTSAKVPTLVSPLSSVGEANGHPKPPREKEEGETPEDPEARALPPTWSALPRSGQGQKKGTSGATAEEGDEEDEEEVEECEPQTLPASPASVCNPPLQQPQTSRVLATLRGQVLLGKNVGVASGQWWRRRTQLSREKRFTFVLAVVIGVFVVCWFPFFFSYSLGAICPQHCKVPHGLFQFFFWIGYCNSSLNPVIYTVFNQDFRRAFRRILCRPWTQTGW
T1 sequence (P22909 whole entry): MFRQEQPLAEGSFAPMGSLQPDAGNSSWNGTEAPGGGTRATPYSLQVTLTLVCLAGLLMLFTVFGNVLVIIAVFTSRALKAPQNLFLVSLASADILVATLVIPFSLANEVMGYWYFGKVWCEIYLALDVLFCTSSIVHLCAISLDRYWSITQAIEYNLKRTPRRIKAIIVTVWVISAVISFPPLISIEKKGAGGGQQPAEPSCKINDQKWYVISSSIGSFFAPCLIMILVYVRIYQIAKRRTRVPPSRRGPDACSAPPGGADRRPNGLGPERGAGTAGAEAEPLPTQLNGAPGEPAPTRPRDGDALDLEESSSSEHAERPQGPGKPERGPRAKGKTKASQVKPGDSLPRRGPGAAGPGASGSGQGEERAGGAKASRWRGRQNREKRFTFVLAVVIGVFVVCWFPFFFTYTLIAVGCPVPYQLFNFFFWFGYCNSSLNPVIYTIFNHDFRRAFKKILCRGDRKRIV
As to the kind of experiment: Presynaptic antagonistic activity against alpha-2 adrenergic receptor from rat, isolated, field-stimulated vas deferens, using clonidine as the agonist. Type of assay: functional.
The molecule `Clc1cccnc1N1CCN(Cc2ccccc2)CC1` displayed a pA2 of 6.5. `CN1CCN(c2ncccc2Cl)CC1` yielded a pA2 of 7.4.

Turning to `Fc1cccnc1N1CCNCC1`, the pA2 turned out to be 6.9. For the molecule `CN1CCN(c2ncccc2F)CC1`, the pA2 was determined as 7.4. The molecule `Clc1ccccc1N1CCNCC1` registered a pA2 of 6.

(Values after ChEMBL document CHEMBL1122408, “Pyridinylpiperazines, a new class of selective alpha 2-adrenoceptor antagonists” (J Med Chem, 1983).)
